Results from patent US4241052A, “Novel nitrosourea compounds and process for preparing the same” (Tanabe Seiyaku Co., Ltd., priority 1978, dated 1980).

Columns and labels:
[1] = Preventive effect against the growth of Ehrlich ascites carcinoma (Method A); format: in vivo, mice (ICR, female); conditions: mouse, in vivo, ip; max dose, 100% inhibition without death; doses of the table in mg/kg/day; read-out: MTD (Maximum Tolerated Dose)
Description: (§1) (A) Preventive effect against the growth of Ehrlich ascites tumor
(§2) 10^6 tumor cells of Ehrlich ascites carcinoma were inoculated intraperitoneally into a group of five femal mice (ICR mice, body weight: 19-23 g). A test compound was dissolved in a physiological saline solution and administered intraperitoneally to the mice. The administration of the test compound was began 24 hours after the inoculation of the tumor cells and performed once a day for 5 days. The volume of ascites in the treated mice were measured after 7 days of the experiment.

[2] = tested on: Ehrlich ascites carcinoma; assay: as above; format: in vivo, mice (ICR, female); conditions: for inhibition in vivo at 1.56 mg/kg: 1.56 mg/kg/day i.p.; for inhibition in vivo at 25 mg/kg: 25 mg/kg/day i.p.; for minimal effective dose: 168 h, min dose, 100% inhibition, read-out: MED (Minimum Effective Dose); for inhibition in vivo at 0.19 mg/kg: 0.19 mg/kg/day i.p.; for inhibition in vivo at 0.39 mg/kg: 0.39 mg/kg/day i.p.; for inhibition in vivo at 0.78 mg/kg: 0.78 mg/kg/day i.p.; for therapeutic index (M.T.D./M.E.D.), times greater than that of GANU: Ehrlich ascites tumor, relative to GANU
Description: as §1, §2

Leukemia L-1210 = assay: Effect on life span of mice implanted with leukemic cells of L-1210 (Method B); format: in vivo, mice (BDF1, male); conditions: five consecutive days
Description: (B) Effect on the life span of mice implanted with leukemic cells of L-1210
10^5 leukemic cells of L-1210 were inoculated intraperitoneally into a group of four male mice (BDF1 mice, body weight: 19-23 g). A test compound was dissolved in a physiological saline solution and administered intraperitoneally to the mice. The administration of the test compound was began 24 hours after the inoculation of the leukemic cells and performed once a day for 5 days. The survival days of the treated mice were observed.

[3] = Mus musculus, Ehrlich, ip, 120 h, 5 days, read-out: Inhibition ratio
[4] = Mus musculus, Ehrlich, ip, 120 h, 3.12 mg/kg/day i.p., 5 days, read-out: Inhibition ratio
[5] = Mus musculus, Ehrlich, ip, 120 h, 6.25 mg/kg/day i.p., 5 days, read-out: Inhibition ratio
[6] = Mus musculus, Ehrlich, ip, 120 h, 100 mg/kg/day i.p., 5 days, read-out: Inhibition ratio
[7] = Mus musculus, Ehrlich, ip, 120 h, 400 mg/kg/day i.p., 5 days, read-out: Inhibition ratio
[8] = Mus musculus, Ehrlich, ip, doses of the table in mg/kg/day
[9] = Mus musculus, Ehrlich, ip, 120 h, 12.5 mg/kg/day i.p., 5 days, read-out: Inhibition ratio
[10] = Mus musculus, Ehrlich, ip, 120 h, 50 mg/kg/day i.p., 5 days, read-out: Inhibition ratio

Compound	MTD at 168 h [1] [mg/kg/day]	Therapeutic index (MTD/MED) [2]	inhibition in vivo at 1.56 mg/kg [2, 3] [%]	inhibition in vivo at 6.25 mg/kg [2, 5] [%]	inhibition in vivo at 25 mg/kg [2, 3] [%]	inhibition in vivo at 100 mg/kg [2, 6] [%]	minimal effective dose [2, 8] [mg/kg/day]	inhibition in vivo at 0.39 mg/kg [2, 3] [%]	inhibition in vivo at 0.78 mg/kg [2, 3] [%]	also measured
CC(c1ccccc1)N(C(=O)N(CCCl)N=O)C1O[C@H](CO)[C@@H](O[C@H]2O[C@H](CO)[C@@H](O)[C@H](O)[C@H]2O)[C@H](O)[C@H]1O (stereo partly drawn) [Compound 5, 1-(2-chloroethyl)-1-nitroso-3-(α-methylbenzyl)-3-[O-α-D-glucopyranosyl-(1→4)-D-glucopyranosyl]urea]	400	128	6.2	100	100	100	3.12	–	–	Toxic (number of mice died/number of mice used) ([2]; 800 mg/kg/day i.p., 5 days): 4/5; inhibition in vivo at 3.12 mg/kg [2, 4]: 100%; inhibition in vivo at 400 mg/kg [2, 7]: 100%
O=NN(CCCl)C(=O)N(CC1CO1)C1OC[C@H](O)[C@H](O)[C@H]1O (stereo partly drawn) [Compound 12, 1-(2-chloroethyl)-1-nitroso-3-(oxiran-2-yl-methyl)-3-(L-arabinopyranosyl)urea]	50	128	–	–	–	–	0.39	100	100	Toxic (number of mice died/number of mice used) ([2]; 100 mg/kg/day i.p., 5 days): 5/5; inhibition in vivo at 0.19 mg/kg [2, 3]: 20.9%; inhibition in vivo at 3.12 mg/kg [2, 4]: 100%; inhibition in vivo at 12.5 mg/kg [2, 9]: 100%; inhibition in vivo at 50 mg/kg [2, 10]: 100%
O=NN(CCCl)C(=O)N(CC1CCCO1)C1O[C@H](CO)[C@H](O)[C@H](O)[C@H]1O (stereo partly drawn) [1-(2-chloroethyl)-1-nitroso-3-tetrahydrofurfuryl-3-(D-galactopyranosyl)urea]	–	–	–	–	–	–	–	–	–	increase in the average life span (Leukemia L-1210; 1.7 mg/kg i.p.): about 30%
Cc1ccc(CN(C(=O)N(CCCl)N=O)C2O[C@H](CO)[C@@H](O[C@H]3O[C@H](CO)[C@@H](O)[C@H](O)[C@H]3O)[C@H](O)[C@H]2O)cc1 (stereo partly drawn) [Compound 2, 1-(2-chloroethyl)-1-nitroso-3-(p-methylbenzyl)-3-[O-α-D-glucopyranosyl-(1→4)-D-glucopyranosyl]urea]	400	256	100	100	100	100	1.56	12.8	74.4	Toxic (number of mice died/number of mice used) ([2]; 800 mg/kg/day i.p., 5 days): 5/5; inhibition in vivo at 400 mg/kg [2, 7]: 100%
O=NN(CCCl)C(=O)N(Cc1ccco1)C1O[C@H](CO)[C@@H](O)[C@H]1O (stereo partly drawn) [Compound 14, 1-(2-chloroethyl)-1-nitroso-3-furfuryl-3-(D-ribofuranosyl)urea]	100	64	100	100	100	100	1.56	18.4	30.6	Toxic (number of mice died/number of mice used) ([2]; 200 mg/kg/day i.p., 5 days): 5/5
O=NN(CCCl)C(=O)N(CC1CC1)C1OC[C@H](O)[C@H](O)[C@H]1O (stereo partly drawn) [1-(2-chloroethyl)-1-nitroso-3-cyclopropylmethyl-3-(L-arabinopyranosyl)urea]	–	–	–	–	–	–	–	–	–	increase in the average life span (Leukemia L-1210; 1.1 mg/kg i.p.): about 30%
O=NN(CCCl)C(=O)N(CC1CO1)C1OC[C@H](O)[C@H](O)[C@H]1O (stereo partly drawn) [1-(2-chloroethyl)-1-nitroso-3-(oxiran-2-yl-methyl)-3-(L-arabinopyranosyl)urea]	–	–	–	–	–	–	–	–	–	increase in the average life span (Leukemia L-1210; 1.05 mg/kg i.p.): about 30%
O=NN(CCCl)C(=O)N(Cc1ccccc1)C1O[C@H](CO)[C@@H](O[C@H]2O[C@H](CO)[C@@H](O)[C@H](O)[C@H]2O)[C@H](O)[C@H]1O (stereo partly drawn)	–	–	–	–	–	–	–	–	–	therapeutic index (M.T.D./M.E.D.), times greater than that of GANU [2]: about 8 times
O=NN(CCCl)C(=O)NC1CCCCC1 [CCNU, 1-(2-chloroethyl)-1-nitroso-3-cyclohexylurea, reference compound]	–	4	–	–	–	–	–	–	–	Inhibition ratio ([2]; 3.12 mg/kg/day i.p., 5 days): 21.1%; Inhibition ratio ([2]; 6.25 mg/kg/day i.p., 5 days): 33.3%; Inhibition ratio ([2]; 12.5 mg/kg/day i.p., 5 days): 100%; Inhibition ratio ([2]; 50 mg/kg/day i.p., 5 days): 100%; Toxic (number of mice died/number of mice used) ([2]; 100 mg/kg/day i.p., 5 days): 5/5; MTD (Maximum Tolerated Dose) ([2]; max dose, 100% inhibition without death, doses of the table in mg/kg/day, 10080 min): 50
COc1ccc(CN(C(=O)N(CCCl)N=O)C2O[C@H](CO)[C@@H](O[C@H]3O[C@H](CO)[C@@H](O)[C@H](O)[C@H]3O)[C@H](O)[C@H]2O)cc1 (stereo partly drawn)	–	–	–	–	–	–	–	–	–	therapeutic index (M.T.D./M.E.D.), times greater than that of GANU [2]: about 8 times
O=NN(CCCl)C(=O)N(Cc1cccs1)C1OC[C@H](O)[C@H](O)[C@H]1O (stereo partly drawn) [1-(2-chloroethyl)-1-nitroso-3-(thiophen-2-yl-methyl)-3-(L-arabinopyranosyl)urea]	–	–	–	–	–	–	–	–	–	increase in the average life span (Leukemia L-1210; 0.35 mg/kg i.p.): about 30%
O=NN(CCCl)C(=O)N(CCc1ccccc1)C1O[C@H](CO)[C@@H](O[C@H]2O[C@H](CO)[C@@H](O)[C@H](O)[C@H]2O)[C@H](O)[C@H]1O (stereo partly drawn) [Compound 4, 1-(2-chloroethyl)-1-nitroso-3-phenethyl-3-[O-α-D-glucopyranosyl-(1→4)-D-glucopyranosyl]urea]	200	64	66.7	–	–	–	3.12	–	2.6	Toxic (number of mice died/number of mice used) ([2]; 400 mg/kg/day i.p., 5 days): 5/5; inhibition in vivo at 3.12 mg/kg [2, 4]: 100%; inhibition in vivo at 12.5 mg/kg [2, 9]: 100%; inhibition in vivo at 50 mg/kg [2, 10]: 100%; inhibition in vivo at 200 mg/kg ([2]; Mus musculus, Ehrlich, ip, 120 h, 200 mg/kg/day i.p., 5 days, read-out: Inhibition ratio): 100%
O=NN(CCCl)C(=O)N(Cc1ccccc1)C1OC[C@H](O)[C@H](O)[C@H]1O (stereo partly drawn) [Compound 11, 1-(2-chloroethyl)-1-nitroso-3-benzyl-3-(L-arabinopyranosyl)urea]	100	128	100	100	100	100	0.78	65.3	100	Toxic (number of mice died/number of mice used) ([2]; 200 mg/kg/day i.p., 5 days): 5/5; inhibition in vivo at 0.19 mg/kg [2, 3]: 18.4%
O=NN(CCCl)C(=O)N(Cc1cccs1)C1O[C@H](CO)[C@@H](O[C@H]2O[C@H](CO)[C@@H](O)[C@H](O)[C@H]2O)[C@H](O)[C@H]1O (stereo partly drawn)	–	–	–	–	–	–	–	–	–	therapeutic index (M.T.D./M.E.D.), times greater than that of GANU [2]: about 8 times
O=NN(CCCl)C(=O)N(Cc1cccs1)C1O[C@H](CO)[C@@H](O[C@H]2O[C@H](CO)[C@@H](O)[C@H](O)[C@H]2O)[C@H](O)[C@H]1O (stereo partly drawn) [Compound 7, 1-(2-chloroethyl)-1-nitroso-3-(thiophen-2-yl-methyl)-3-[O-α-D-glucopyranosyl-(1→4)-D-glucopyranosyl]urea]	400	256	100	100	100	100	1.56	6.2	31.2	Toxic (number of mice died/number of mice used) ([2]; 800 mg/kg/day i.p., 5 days): 5/5; inhibition in vivo at 400 mg/kg [2, 7]: 100%
